Results as given in US9877978B2, “Compositions comprising NDGA derivatives and sorafenib and their use in treatment of cancer” (THE JOHNS HOPKINS UNIVERSITY, priority 2012, dated 2018).
Where two headings read alike, the source gives them in different places.

Legend:
HepG2 human HCC cells = experiment: MTT cytotoxicity assay with median-effect / combination index analysis; type: cell-based; details: for DRI value at ED75 / DRI value at ED90 / DRI value at ED95: single agent vs combination; for IC50: Homo sapiens
Procedure: Cytotoxicity assay. […] M4N was used at concentrations between 0 and 80 μM. For the combination of M4N and sorafenib a constant molar ratio of 2:1 (M4N:sorafenib) was used. Twenty four hours after drug addition, cytotoxicity was assessed with the MTT assay with […] measured with a Power Wave 200 microplate reader.
Evaluation of drug interactions. The combination index (CI) isobologram method of Chou and Talalay, which is based on the median-effect principle, was used to calculate synergism or antagonism for the combined drug effects. Dose-effect curves for the two drugs, singly and in combination, in serially diluted concentrations were plotted using the median-effect equation and plot and the CI equation and plot. CI values at different effect and dose levels and isobolograms were generated automatically using the computer software CompuSyn. With this method, additive, synergistic, or antagonistic effects are indicated by CI values of 1, <1, and >1, respectively. Comparison of the ratio of doses required to reach a given effect level for each single drug and the drugs in combination was used to determine the dose-reduction.

[1] = tested on: caspase activation (procaspases 9, 4 and 7, caspase 3) in AsPc-1 human pancreatic carcinoma cells; experiment: Western immunoblot analysis of caspase activation; type: cell-based; details: for caspase activation (procaspase cleavage): 80 μM M4N, 40 μM sorafenib (FIG. 17); for caspase 3 activation: after 18 h of treatment
Procedure: Western immunoblot analysis. Treated and control cells were washed with PBS and suspended in RIPA buffer (150 mM NaCl, 50 mM Tris-HCL (pH8.0), 0.1% SDS, 1% NP40, and 0.5% deoxycholate) supplemented with protease inhibitor cocktail. After a 20 min incubation on ice, the suspension was centrifuged to clear the solubilized proteins. Bradford protein assay were performed and samples containing equivalent amounts of protein were resolved by standard SDS-polyacrylamide gel electrophoresis and transferred to nirocellulose membrane. The membranes were blocked with skim milk, and incubated with primary antibodies at 4° C. overnight and then with secondary antibody conjugated with horse radish peroxidase at room temperature for 1 h. The signals were detected by western blot chemiluminescence detection reagent.

[2] = HepG2, concurrent administration of M4N

Structure (SMILES) | DRI value at ED75 (HepG2 human HCC cells; HepG2, 24 h) | DRI value at ED90 (HepG2 human HCC cells; HepG2, 24 h) | DRI value at ED95 (HepG2 human HCC cells; HepG2, 24 h) | DRI: decrease of concentration necessary to inhibit growth of 50% of cells (ED50) (HepG2 human HCC cells; [2]) | DRI: decrease of concentration necessary to inhibit growth of 75% of cells (ED75) (HepG2 human HCC cells; [2]) | DRI: decrease of concentration necessary to inhibit growth of 95% of cells (ED95) (HepG2 human HCC cells; [2]) | IC50 (HepG2 human HCC cells; HepG2, after 24 h of treatment (FIG. 4), read-out: IC50 against HepG2 cells) | cytotoxic effect (HepG2 human HCC cells; sorafenib 20 μM alone, HepG2, 24 h) | caspase activation (procaspase cleavage) [1] | caspase 3 activation [1] | IC50 (HepG2 human HCC cells; HepG2, 24-Hour Treatment, combination at constant molar ratio 2:1 (M4N:sorafenib), read-out: Dm, median effect dose (concentration that inhibits cell growth by 50%))
CNC(=O)c1cc(Oc2ccc(NC(=O)Nc3ccc(Cl)c(C(F)(F)F)c3)cc2)ccn1 [sorafenib] | 92815.6 | 489945.0 | 1519041 | 17,583.1 fold | 92,815.6 fold | 151,9041 fold | ~30 µM | ~20% | decreased levels of procaspases 9, 4 and 7 | neither drug nor their combination had an effect | 
COc1ccc(C[C@@H](C)[C@@H](C)Cc2ccc(OC)c(OC)c2)cc1OC [M4N, tetra-O-methyl nordihydroguaiaretic acid] | 3.15 | 1.75 | 1.17 |  |  |  |  |  | little effect on caspase activation | neither drug nor their combination had an effect | 283 µM
